# Assay results: patent publication US5262439A (priority 1992, dated 1993)
# Assays:
# [1] = tested on: LDL incubated with endothelial cells (EC); assay: Macrophage degradation of LDL previously incubated with pretreated endothelial cells (biological modification); type: cell-based; details: Set A, 3 hours at 37° C., LDL 24 hours
# Procedure: (§1) Then the cells were thoroughly washed to remove any extracellular inhibitors. Specifically, they were washed three times with 3 ml of F-10 containing 10% fetal calf serum and then incubated with labeled LDL for an additional 24 hours. […] The values given are from a typical experiment from three or more separate experiments.
# LDL [2] = assay: Subsequent copper modification of LDL recovered from pretreated endothelial cells; type: biochemical
# Procedure: (§2) Nevertheless, after two subsequent incubations with LDL at 100 μg/ml for 24 hours each, 30-45% of the incorporated radioactivity was still associated with the cells. […] Thus, cells enriched in probucol, also released the antioxidant into the medium which may offer additional protection against oxidation. The rate of release of probucol from cells was not followed in these studies.
# LDL [3] = assay: Inhibition of oxidative modification of LDL, compound present during 24 hour incubation; type: cell-based
# [4] = tested on: LDL incubated with endothelial cells; assay: Oxidation of LDL recovered from the medium of diglutaryl probucol-pretreated endothelial cells; type: cell-based; details: endothelial cells preincubated with 25 nmol for 3 hours
# Procedure: as §2
# [5] = Hydrolysis to free probucol; type: physicochemical
# Text: A particularly preferred embodiment of the present invention is a class of dicarboxylic acid esters of probucol compounds which can be dissolved as sodium or potassium salts.
# (§3) The product was purified by silicic acid column chromatography using increasing amounts of ether in hexane. The purified product gave a single spot on TLC (Rf 0.18) distinct from the parent compound (Rf 0.68). Upon alkaline hydrolysis, the compound yielded free probucol.
# endothelial cells [6] = assay: Uptake, retention and release of probucol by endothelial cells incubated with ^14 C-labeled diglutaryl probucol; type: cell-based
# Procedure: as §2
# [7] = tested on: LDL incubated with mouse peritoneal macrophages; assay: Macrophage degradation of LDL previously incubated with pretreated macrophages (biological modification); type: cell-based
# Procedure: (§4) After 48 hours the cells were washed 3 times with 3 ml of Ham's F-10 and then subjected to incubation with ^125 I-LDL (1100 μg/ml) in 2 ml of Ham's F-10 for 20 hours. TBARS and subsequent macrophage degradation were determined. The results are averages from a triplicate determination from a representative set.
# (§5) After several washings with Ham's F-10, the cells were then incubated with 200 μg of ^125 I-LDL in 2 ml. of Ham's F-10 for 24 hours. […] However, because the probucol was obviously not in solution and might remain absorbed to the cell surface even after washing, it is possible that residual probucol on the cell surface accounted for the apparent protection during the second incubation, i.e., probucol from the cell surface might transfer into the LDL during the first part of the second incubation.
# as §1
# [8] = tested on: LDL incubated with mouse peritoneal macrophages; assay: Ability of macrophages to oxidize LDL after preincubation with probucol or diglutaryl probucol (TBARS); type: cell-based
# Procedure: as §4, §5, §1
# Solubility = type: physicochemical
# Procedure: as §3
# More than 96% of the labeled derivative readily went into the solution as the sodium salt and when incubated with macrophages was effectively taken up by the cells.
# macrophages = assay: Uptake of ^14 C-labeled water-soluble derivative by macrophages; type: cell-based, mouse; details: for Cell associated ^14 C-radioactivity: 3 hours at 37° C.
# Procedure: (§6) The cells were then washed three times with DME. […] The cells were dissolved in 1 ml of 0.01% Triton X-100 before the determination of radioactivity. Values for macrophages represent averages of duplicate determinations from one of two separate trials. Values for endothelial cells are from four individual cell incubations.
# [9] = tested on: LDL incubated with endothelial cells (EC); assay: Ability of endothelial cells (EC) to induce LDL oxidation after pretreatment (TBARS); type: cell-based; details: Set A, 3 hours at 37° C., LDL 24 hours
# Procedure: as §1
# endothelial cells [10] = assay: Uptake of ^14 C-labeled water-soluble derivative by endothelial cells; type: cell-based; details: 5 nmol added, 3 hours at 37° C., four individual cell incubations
# Procedure: as §6
# [11] = cited from earlier work
# endothelial cells [12] = details: cited from earlier work
# LDL [13] = details: cited from earlier work
# [14] = tested on: LDL receptor-deficient rabbits; details: cited from earlier work
# rat = details: given orally for some time before tying off a renal artery; cited from earlier work
# [15] = Set B, macrophages pretreated with 10 μM, 3 hours at 37° C., LDL 24 hours
# [16] = Set B, macrophages pretreated with 20 μM, 3 hours at 37° C., LDL 24 hours
# [17] = Set B, macrophages pretreated with 30 μM, 3 hours at 37° C., LDL 24 hours
# [18] = EC pretreated with 100 μM (probucol in ethanol)
# [19] = macrophages pretreated with 500 nmol/ml probucol in ethanol, 48 hours, then LDL
smiles,measurement,setting,value
"CC(C)(Sc1cc(C(C)(C)C)c(OC(=O)CCCC(=O)O)c(C(C)(C)C)c1)Sc1cc(C(C)(C)C)c(OC(=O)CCCC(=O)O)c(C(C)(C)C)c1 [diglutaryl probucol, probucol diglutarate]",Macrophage degradation,[1]; EC pretreated with 25 μM,1.5 μg/5 h per mg cell protein
same,Macrophage degradation,[1]; EC pretreated with 50 μM,1.3 μg/5 h per mg cell protein
same,Modification of recovered LDL upon subsequent incubation with 5 μM copper,LDL [2]; endothelial cells preincubated with 25 nmol for 3 hours,readily modified
same,Modification of recovered LDL upon subsequent incubation with 5 μM copper,LDL [2]; endothelial cells preincubated with 50-200 nmol,resistant to modification
same,inhibition at 2.5 µM,LDL [3],> 50%
same,Oxidation of LDL recovered from the medium,[4],absence of oxidation
same,Hydrolysis in the course of incubation,"[5]; 24 hour incubation, medium",almost completely hydrolyzed
same,Hydrolysis in aqueous solution,[5]; sodium salt in aqueous solution,slow hydrolysis
same,Incorporated radioactivity still associated with the cells,"endothelial cells [6]; 50-200 nmol, after two subsequent incubations with LDL at 100 μg/ml for 24 hours each",30-45%
same,Release of free probucol into the medium,"endothelial cells [6]; endothelial cells incubated with 50-200 nmol, 24 hour incubation after washings",considerable release of free probucol into the medium
same,Macrophage degradation,[7]; [15],2.2 μg/5 h per mg cell protein
same,Macrophage degradation,[7]; [16],1.6 μg/5 h per mg cell protein
same,Macrophage degradation,[7]; [17],1.4 μg/5 h per mg cell protein
same,TBARS,[8]; [15],5.3 nmol/mg protein
same,TBARS,[8]; [16],4.1 nmol/mg protein
same,TBARS,[8]; [17],3.3 nmol/mg protein
same,Inhibition of LDL modification by pretreated cells,"[8]; concentrations as low as 10 μM, 3 hours pretreatment",inhibited the modification completely
same,Solubility in organic solvents,Solubility; acid form,soluble in organic solvents
same,Labeled derivative going into solution,Solubility; as the sodium salt,More than 96%
same,Solubility in sodium bicarbonate solution,"Solubility; sodium bicarbonate solution, after removal of organic solvent",can be dissolved in sodium bicarbonate solution
same,"Cell associated radioactivity in the form of the precursor, probucol diglutarate",macrophages; at 60 minutes,about half
same,Cell associated ^14 C-radioactivity,"macrophages; macrophages, 5 nmol added",2.5 nmol
same,Cell associated ^14 C-radioactivity,"macrophages; macrophages, 10 nmol added",3.7 nmol
same,Cell associated ^14 C-radioactivity,"macrophages; macrophages, 15 nmol added",4.2 nmol
same,Cell associated ^14 C-radioactivity,"macrophages; macrophages, 20 nmol added",5.2 nmol
same,Cell associated ^14 C-radioactivity,"macrophages; macrophages, 25 nmol added",6.5 nmol
same,Added radioactivity associated with the cells,"macrophages; macrophages, after 2 hours",25-30%
same,Amount associated with the cells,"macrophages; macrophages, after 2 hours",2.5-6.5 nmol of probucol/~40 μg of cell protein
same,TBARS,[9]; EC pretreated with 25 μM,12.1 nmol/mg protein
same,TBARS,[9]; EC pretreated with 50 μM,6.5 nmol/mg protein
same,Cell associated ^14 C-radioactivity,endothelial cells [10],1.9 ± 0.14 nmol
"CC(C)(Sc1cc(C(C)(C)C)c(O)c(C(C)(C)C)c1)Sc1cc(C(C)(C)C)c(O)c(C(C)(C)C)c1 [probucol, 4,4'-(isopropylidenedithio) bis(2,6-di-tert-butylphenol), reference compound]",Solubility in lipid,[11],highly lipid soluble
same,Solubility in water,[11]; water,almost insoluble in water
same,Macrophage degradation,[1]; [18],6.4 μg/5 h per mg cell protein
same,Incorporation into endothelial cells,"endothelial cells [12]; 50 μM probucol, 24 h",less than 1 μg of probucol/10^6 cells
same,Rate of entrance into cells in culture,endothelial cells [12]; cells in culture,slow
same,Probucol released into the medium,"endothelial cells [6]; 24 hour incubation with LDL, 50-200 nmol diglutaryl probucol",about 7 nmol
same,Probucol incorporated into the cells,"endothelial cells [6]; endothelial cells, 50-200 nmol diglutaryl probucol",more than 15 nmol
same,Macrophage degradation,[7]; [19],2.1 μg/5 h per mg cell protein
same,Oxidative modification of LDL,LDL [13],block oxidative modification of LDL
same,LDL modification by cells as compared to control cells not pretreated,[8]; cells preincubated with probucol 500 nmol/ml,modified LDL poorly as compared to control cells
same,TBARS,[8]; [19],11.2 nmol/mg protein
same,Solubility in medium,"Solubility; 500 nmol/ml added in ethanol, medium grossly milky",very limited solubility
same,TBARS,[9]; [18],42.5 nmol/mg protein
same,Progression of atherosclerosis,[14],slow the progression of atherosclerosis
same,Post-perfusion injury in the kidney,rat,can limit the post-perfusion injury in the kidney
